Experiments:
[1] = test system: rat L-NAME-induced hypertension; experiment: In vivo tolerance evaluation, L-NAME-induced hypertension after 5-day oral treatment; conditions: 5-ISMN 30 mg/kg, compound (6) 100 mg/kg
Description: Fasted male SD rats (250-300 g, n=3-5 per group), obtained from Harlan Italy (Correzzana, Milan, Italy) were orally treated with tested compounds or vehicle (DMSO:Methocel 1% 2/98 v/v) in a total volume of 4 ml/kg by gavage. At each time point (1, 3, 6 and 24 h) animals were deeply anesthetized with Zoletil® 100 (3 mg/kg), given intramuscularly. Thereafter, a pressure catheter (Samba Sensors, Harvard Apparatus, UK) was introduced into the common carotid artery for central blood pressure measurement. Pressure transducer was connected to a personal computer, in order to allow real time monitor of the pressure tracing. After 10 minutes of basal recording, L-NAME (50 mg/kg) was administered intraperitoneally and the effect on SBP monitored. When the SBP stabilized (5 minutes without variations) the recording was stopped. To further confirm that functional activity was NO-dependent, at each time point blood ^15N-nitrite levels were measured following the procedure described in Example 12.
To investigate whether the compound (6) induced nitrate tolerance, as observed for most of the drugs belonging to the nitrate class, the L-NAME-induced hypertension rat model described in Example 7 was performed following a repeated oral treatment. Rats were orally treated for 5 days with vehicle, compound (6) (100 mg/kg) or 5-ISMN (30 mg/kg). […] The experiments were performed at the peak effect (1 hour for 5-ISMN and 3 hours for Compound (6)), results are reported in Table 3.

[2] = test system: isolated aortas from rats; experiment: Ex vivo tolerance evaluation, vascular response of isolated rat aortas; format: cell-based; conditions: 5-day oral treatment; 5-ISMN 30 mg/kg, Compound (6) 100 mg/kg
Description: (§1) Thoracic aortas from male New Zealand rabbits or male Sprague Dawley (SD) were used. The aortas were placed immediately in Krebs-HEPES buffer (pH 7.4; composition mM: NaCl 130.0, KCl 3.7, NaHCO3 14.9, KH2PO4 1.2, MgSO4.7H2O 1.2, Glucose 11.0, HEPES 10.0, CaCl2.2H2O 1.6). Connective tissue was removed and aortas were cut into ring segments (4-5 mm in length). Each ring was placed in a 5 mL tissue bath filled with Krebs-HEPES buffer (37° C.) aerated with 95% O2 and 5% CO2 and was attached to a force transducer (Grass FT03), connected to a BIOPAC MP150 System for measurement of the isometric tension. Preparations were allowed to equilibrate for 1 h at a resting tension of 2 g for rabbit aortas and 1 g for rat aortas with changes of the buffer every 15 min. Then the rings were stimulated by exposure to 90 mM KCl (3 times) with intervening washings.
(§2) Rat aorta. After equilibration, rat aortas were precontracted with KCl (90 mM) and, when the contraction was stable, a cumulative concentration-response curve to acetylcholine (ACh, 0.01-100 μM) was added. After washout, the rings were precontracted again with KCl (90 mM). When a steady-state level of contraction was obtained, a cumulative concentration-response curve to the tested compounds (0.01-100 μM) was obtained.
(§3) Data analysis. Results are given as mean±SEM. Vascular responses are expressed as percentage relaxation and plotted vs concentration. The sensitivity of isolated aorta to different vasodilators is expressed as the concentration that elicited 50% of the maximal responses (EC50). Responses are quantified in terms of EC50 and Emax (maximal vasodilating effect) values, obtained from the concentration-response curve by nonlinear curve fitting, using GraphPad software.
Tolerance to nitrate was further investigated assessing the vascular effects of Compound (6) following repeated treatment compared with 5-ISMN. The vascular response to the compound itself was assessed on isolated aortas from rats orally treated for 5 days with Compound (6) (100 mg/kg). The vascular response was performed as described in Example 6.
Vascular responses were performed 1 h (ISMN) or 3 h (Compound (6)) after the last administration, the concentrations of tested compound that elicited the 50% of the maximal responses (EC50) are shown in Table 4.

[3] = test system: endothelial-dependent vasodilation of rat aortas; experiment: Endothelial dysfunction evaluation, vascular response to acetylcholine; format: cell-based; conditions: 5-day treatment; 5-ISMN 30 mg/kg, Compound (6) 100 mg/kg
Description: as §1, §2, §3
Endothelial-dependent vasodilation (vascular response to acetylcholine, ACh) was assessed following 5-day treatment with Compound (6) (100 mg/kg) or 5-ISMN (30 mg/kg). A relaxant response to ACh indicated the presence of a functional endothelium. The vascular response was performed as described in Example 6.

[4] = test system: hypertonic saline-induced IOP increase in rabbits; experiment: IOP lowering activity in hypertonic saline-induced IOP increase in rabbits; format: in vivo, New Zealand White rabbits
From the text: Intraocular pressure (IOP) lowering activity in hypertonic saline-induced IOP increase in rabbits.
This animal model of elevated IOP was used for assessing the intraocular pressure (IOP) lowering activities of some compounds of the invention, timolol, dorzolamide and 5-isosorbide mononitrate.
• compounds (6), (20) and (25) • timolol and dorzolamide that are drugs commonly used for the treatment of glaucoma and ocular hypertension. • Isosorbide mononitrate (5-ISMN) that is a commonly used nitric oxide donor drug.
(§4) Timolol, dorzolamide and 5-ISMN were tested as reference compounds. Adults male New Zealand White rabbits weighting 1.8-2.0 Kg were used in the experiments.
IOP was measured using a Tono-Pen XL prior to hypertonic saline injection (basal) and at 30, 60, 120 and 240 min thereafter. Vehicle (5% cremophor-EL; 0.3% DMSO; 0.2 mg/ml BAK in PBS pH 6.0) and all the tested compounds dissolved in the vehicle were instilled as eye drops immediately after hypertonic saline injection. Eyes were randomly assigned to different treatment groups. Vehicle and the tested compounds were directly instilled into the conjunctiva pocket at the desired doses. One drop of 0.4% oxybuprocaine hydrochloride (Novesine, Sandoz) was instilled in each eye immediately before each set of pressure measurements.
Results are reported in Table 6, the ocular hypotensive activities of the tested compounds are expressed as IOP change at 60 and 120 minutes after topical administration versus vehicle and versus the basal IOP.

[5] = test system: ocular normotensive New Zealand rabbits; experiment: IOP lowering activity in ocular normotensive New Zealand rabbits; format: in vivo, New Zealand White rabbits
Description: Intraocular pressure (IOP) lowering activity in ocular normotensive New Zealand rabbits.
• compound (6) • timolol that is a drug commonly used for the treatment of glaucoma and ocular hypertension. • Isosorbide mononitrate (5-ISMN) that is a commonly used nitric oxide donor drug.
as §4
IOP was measured using a pneumatonometer 30 CLASSIC™ before topical application (basal) and a different time point (30, 60, 120, 240 and 300 min) thereafter. Vehicle (5% cremophor-EL; 0.3% DMSO; 0.2 mg/ml BAK in PBS pH 6.0) or tested compounds dissolved in the vehicle were instilled as eye drops into the conjunctiva pocket. Eyes were randomly assigned to different treatment groups. One drop of 0.4% oxybuprocaine hydrochloride (Novesine, Sandoz) was instilled in each eye immediately before each set of pressure measurements.
The test results are reported in Table 7, the ocular hypotensive activity is expressed as IOP changes at 30, 60, 120 and 300 minutes after topical administration versus vehicle and versus IOP at basal.

[6] = 60 min after topical administration
[7] = 120 min after topical administration

With COC1=C(OC)C(=O)C(CCCCCCCCCCO[N+](=O)[O-])=C(C)C1=O [Compound (6), 10-(4,5-dimethoxy-2-methyl-3,6-dioxocyclohexa-1,4-dienyl)decyl nitrate] the “efficacy in preventing L-NAME-induced hypertension after 5-day oral treatment” value [1] was “counteracted L-NAME-induced hypertension”, the “vascular sensitivity of aortas of treated animals to the compound itself versus vehicle/control arteries” value [2] was “showed the same sensitivity” and the “effect on endothelial-dependent vasorelaxation (response to ACh)” value [3] was “did not modify endothelial-dependent vasorelaxation”. The “ΔΔ (mmHg), IOP change versus vehicle and versus basal IOP” value [4, 6] was −7.4 ± 2.7 mmHg, the “ΔΔ (mmHg), IOP change versus vehicle and versus basal IOP” value [4, 7] was −9.8 ± 2.0 mmHg and the “ΔΔ (mmHg), IOP change versus vehicle and versus IOP at basal” value ([5]; 30 min after topical administration) was −1.8 ± 0.4 mmHg. For the same molecule, the “ΔΔ (mmHg), IOP change versus vehicle and versus IOP at basal” value [5, 6] was −1.6 ± 0.3 mmHg, the “ΔΔ (mmHg), IOP change versus vehicle and versus IOP at basal” value [5, 7] was −1.3 ± 0.5 mmHg and the “ΔΔ (mmHg), IOP change versus vehicle and versus IOP at basal” value ([5]; 300 min after topical administration) was −1.5 ± 0.4 mmHg.
